Assay results reported in patent US12611395B2, “Use of carbamate compound for preventing or treating trigeminal neuralgia” (SK BIOPHARMACEUTICALS CO., LTD., priority 2016, dated 2026).

Assays:
[1] = test system: rats in which facial pain was induced by inferior alveolar nerve injury; test: Air-puff test of mechanical allodynia in rats with facial pain induced by inferior alveolar nerve injury; format: in vivo, rats (Sprague-Dawley); conditions: rat; for analgesic effect on mechanical allodynia induced by inferior alveolar nerve injury: FIG. 4
Protocol: (§1) Mature male rats (Sprague-Dawley, 200-230 g) were used. The experimental animals were maintained under conditions of light-and-darkness cycle of 12 hours, a temperature of 22 to 25° C., a relative humidity of 40 to 60%, and free access to water and food.
(§2) To observe the behavioral response, the animals were placed in a cage and adapted for 20 minutes in a quiet area, followed by an air-puff test to assess mechanical allodynia to air stimulation. Aggressive behaviors such as head movement to avoid air stimulation or biting in response to the air stimulation applied to the facial region which is dominated by the trigeminal nerve were used as evaluation criteria for the behavioral reflex. A total of 10 trials and 50% or more responses were considered as the threshold of stimulation.
(§3) On the 7th day after surgery, the test compound (5, 10 and 20 mg/kg) and carbamazepine (25 and 50 mg/kg) were intraperitoneally administered to the test animals in which allodynia had been induced. At 30 minutes, 60 minutes, 90 minutes, 2 hours, 3 hours, 4 hours and 6 hours after administration, the pharmacological effects of the drugs were evaluated by observing changes in the behavioral responses.
(§4) The effect of the compounds was expressed as mean±standard error, and statistical significance was recognized when data were p<0.05 difference using one-way ANOVA and Dunnett's test.

[2] = patients treated for trigeminal neuralgia; cited from earlier work
[3] = test system: rats in which trigeminal neuralgia was induced by the trigeminal nerve root compression; test: Air-puff test of mechanical allodynia in rats with trigeminal neuralgia induced by trigeminal nerve root compression; format: in vivo, rats (Sprague-Dawley); conditions: rat; for analgesic effect on mechanical allodynia induced by trigeminal nerve root compression: FIG. 2
Protocol: as §1
Rats were anesthetized with a mixed solution of ketamine (40 mg/kg) and xylazine (4 mg/kg), fixed on a stereotaxic instrument, and 4% agar solution was injected into the left trigeminal nerve roots using a stainless steel injection tube to compress the trigeminal nerve roots. 10 μl of 4% agar solution was slowly injected over the trigeminal nerve roots for 5 seconds, and the injection tube was removed after 5 minutes and then sutured (Jeon H J. et. al., A novel trigeminal neuropathic pain model: compression of the trigeminal nerve root produces prolonged nociception in rats, Prog Neuropsychopharmacol Biol Psychiatry. 2012).
as §2
as §3, with “(10, 30” for “(5, 10”, “50” for “20”
as §4

[4] = test system: formalin-induced pain behavioral response in rats; test: Formalin-induced facial pain behavioral response in rats; format: in vivo, rats (Sprague-Dawley); conditions: 5 and 20 mg/kg intraperitoneal 30 minutes before 5% formalin, rat, FIG. 5
Protocol: as §1
5% Formalin (50 μl) was injected subcutaneously into the vibrissa pad on the left facial area of the rats using an insulin syringe (31 gauge). The behavioral response of rubbing or scratching the maxillofacial area was observed from 10 minutes after injection, accumulating in a unit of 5 minutes, for a total of 35 minutes (Park M K. et. al., Peripheral administration of NR2 antagonists attenuates orofacial formalin-induced nociceptive behavior in rats, Prog Neuropsychopharmacol Biol Psychiatry, 2011).
The vehicle, the test compound (5 and 20 mg/kg) and carbamazepine (25 mg/kg) were intraperitoneally administered, and after 30 minutes 5% formalin was injected into the left facial area.
as §4

[5] = overall conclusion, intraperitoneal
[6] = 30 and 50 mg/kg intraperitoneal

## NC(=O)N1c2ccccc2C=Cc2ccccc21 [carbamazepine, reference compound]
[1]; 25 mg/kg intraperitoneal
  analgesic effect on mechanical allodynia induced by inferior alveolar nerve injury: no analgesic effect
[1]; 50 mg/kg intraperitoneal
  time after administration at which the analgesic effect completely disappeared: 2 h
  analgesic effect on mechanical allodynia induced by inferior alveolar nerve injury: significant analgesic effect
[2]
  patients with side effects drowsiness, ataxia, nausea and anorexia: about 40%
[3]; 25 mg/kg intraperitoneal
  analgesic effect on mechanical allodynia induced by trigeminal nerve root compression: no analgesic effect
[3]; 50 mg/kg intraperitoneal
  analgesic effect on mechanical allodynia induced by trigeminal nerve root compression: transient low analgesic effect

## NC(=O)O[C@@H](Cn1ncnn1)c1ccccc1Cl [test compound]
[4]
  pain behavioral response as compared with the vehicle-administered group: statistically significant decrease
[1]; 20 mg/kg intraperitoneal
  time after administration from which significant pain-relieving effect was observed: 90 min
  time for which pain-relieving effect was maintained: 4 h
[1]; 5, 10 and 20 mg/kg intraperitoneal, 7th day after surgery, FIG. 3
  inhibition of mechanical allodynia induced by inferior alveolar nerve injury: significantly inhibited
[1]; 5 and 10 mg/kg intraperitoneal
  time after administration from which the effect was significant: 90 min
  time after administration up to which the effect was significant: 2 h
[1]; [5]
  analgesic action in the inferior alveolar nerve injury-induced facial pain model compared with carbamazepine: equivalent to or greater than carbamazepine
[3]; 30 and 50 mg/kg intraperitoneal, 7th day after surgery, FIG. 1
  inhibition of mechanical allodynia induced by trigeminal nerve root compression: significantly inhibited
[3]; [6]
  time after administration for which analgesic effect was maintained: 6 h
  time after administration from which analgesic effect could be observed: 60 min
[3]; [5]
  analgesic action in the trigeminal neuralgia animal model compared with carbamazepine: better analgesic action than carbamazepine
